Source: patent publication EP0475392B1, “Herbicidal composition” (ISHIHARA SANGYO KAISHA, Ltd., priority 1990, dated 1992)
Where a name gives a salt, the structure may show the parent alone.

Test system: Digitaria sanguinalis
Assay: Test Example 1 (Foliage Treatment Test), herbicidal effect by visual observation
Format: in vivo
Conditions: foliar application at six-leaf stage, 27 days after treatment
Excerpt: Upland soil was placed in 1/10,000-are (are (a) = 100 m²) pots and sown with Digitaria sanguinalis. When the plants reached the six-leaf stage, a predetermined amount of each herbicidal composition which had been diluted with 10 ℓ, per are, of water and further admixed with 0.2 % (v/v) of a spreader (Shin Rino®: manufactured by Nihon Nohyaku Co., Ltd.) was foliarly applied on the plants using a small spray gun. 27 days after the foliage treatment application, the herbicidal effect of the herbicidal composition was examined through visual observation according to the following evaluation criteria.

| Compound | Rating (0.25 g/a active ingredient) | Rating (0.5 g/a active ingredient) | Rating (1 g/a active ingredient) | Rating (2.5 g/a active ingredient) | Rating (5 g/a active ingredient) |
| --- | --- | --- | --- | --- | --- |
| COc1cc(OC)nc(NC(=O)NS(=O)(=O)c2ncccc2C(F)(F)F)n1 [Compound A, 1-(4,6-dimethoxy-pyrimidin-2-yl)-3-(3-trifluoromethyl-2-pyridylsulfonyl)urea] | 2 (20 to 29) | 3 (30 to 39) | 3 (30 to 39) |  |  |
| O=C(O)CNCP(=O)(O)O [Isopropylamine salt of Compound B, isopropylamine salt of N-(phosphonomethyl)glycine, reference compound] |  |  |  | 4 (40 to 49) | 6 (60 to 69) |
